Data as given in patent US20060069132A1, “Azolecarboxamide herbicides” (priority 2004, published 2006).

Experiments:
wheat = assay: Test B postemergence herbicide test; type: in vivo, Triticum aestivum; parameters: key to Wheat plant response rating: 0 = no effect, 100 = complete control; details: postemergence, visual rating, scale 0 (no effect) to 100 (complete control)
Method in brief: (§1)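 Postemergence plants were sprayed with formulated test chemicals at 2 to 18 cm height (1- to 4-leaf stage); paddy species were grown to the 2-leaf stage. After 13 to 15 days in a greenhouse, injury was rated visually against untreated controls on a 0–100 scale (0 = no effect, 100 = complete control).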

corn = assay: Test B pre-/postemergence herbicide test; type: in vivo, Zea mays; details: for Plant response rating, Corn: preemergence; for Corn plant response rating: postemergence, visual rating, scale 0 (no effect) to 100 (complete control)
Method in brief: (§2)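 Visual rating, 0 (no effect) to 100 (complete control), versus untreated controls after 13–15 d in greenhouse. Pre- and postemergence applications (postemergence plants 2–18 cm, 1–4 leaves); flooded paddy arm at 2-leaf stage. Compounds in non-phytotoxic solvent plus surfactant.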

velvetleaf [1] = assay: Test A pre-/postemergence herbicide test; type: in vivo, Abutilon theophrasti
Method in brief: (§3)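 Greenhouse injury scoring (0–100, complete control = 100) at approximately ten days follows simultaneous pre- and postemergence application. Soil received a directed spray after seeding; seedlings of 2–10 cm at the one- to two-leaf stage were sprayed to runoff.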

blackgrass = assay: Test B postemergence herbicide test; type: in vivo, Alopecurus myosuroides; details: postemergence, visual rating, scale 0 (no effect) to 100 (complete control)
Method in brief: (§4)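 Greenhouse test; postemergence application to plants at 1–4 leaves (2–18 cm); paddy species at 2 leaves; evaluated visually vs controls at 13–15 days; scale 0–100 (100 = complete control).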

Surinam grass = assay: Test B pre-/postemergence herbicide test; type: in vivo, Urochloa decumbens; details: for Plant response rating, Surinam Grass: preemergence; for Surinam Grass plant response rating: postemergence, visual rating, scale 0 (no effect) to 100 (complete control)
Method in brief: as §2

morningglory [2] = assay: Test B pre-/postemergence herbicide test; type: in vivo, Ipomoea coccinea; details: for Plant response rating, Morningglory: preemergence; for Morningglory plant response rating: postemergence, visual rating, scale 0 (no effect) to 100 (complete control)
Method in brief: (§5)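 Greenhouse pot assay with simultaneous preemergence (treated seed) and postemergence (2–18 cm seedlings) applications of surfactant-containing, non-phytotoxic solvent formulations. Response scored visually 13–15 days later on a 0–100 scale, 100 meaning complete control.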

pigweed = assay: Test B pre-/postemergence herbicide test; type: in vivo, Amaranthus retroflexus; details: for Plant response rating, Pigweed: preemergence; for Pigweed plant response rating: postemergence, visual rating, scale 0 (no effect) to 100 (complete control)
Method in brief: as §2

barnyardgrass [3] = assay: Test B flooded paddy test; type: in vivo, Echinochloa crus-galli; details: 1000 g ai/ha, visual rating, scale 0 to 100 (0 no effect, 100 complete control), 13 to 15 days
Method in brief: as §4

rice [4] = assay: Test B pre-/postemergence herbicide test; type: in vivo, Oryza sativa; details: 500 g ai/ha; visual rating 0-100, 0 no effect, 100 complete control; preemergence
Method in brief: as §2

morningglory [5] = assay: Test A pre-/postemergence herbicide test; type: in vivo, Ipomoea spp.
Method in brief: as §3

giant foxtail [6] = assay: Test B pre-/postemergence herbicide test; type: in vivo, Setaria faberi; details: for Plant response rating, Foxtail, Giant: preemergence; for Foxtail, Giant plant response rating: postemergence, visual rating, scale 0 (no effect) to 100 (complete control)
Method in brief: as §2

cocklebur = assay: Test B pre-/postemergence herbicide test; type: in vivo, Xanthium strumarium; details: for Plant response rating, Cocklebur: preemergence; for Cocklebur plant response rating: postemergence, visual rating, scale 0 (no effect) to 100 (complete control)
Method in brief: as §5

[7] = system: small flower umbrella sedge; assay: Test B flooded paddy test; type: in vivo, Cyperus difformis; details: 1000 g ai/ha, visual rating, scale 0 to 100 (0 no effect, 100 complete control), 13 to 15 days
Method in brief: as §4

large crabgrass [8] = assay: Test B pre-/postemergence herbicide test; type: in vivo, Digitaria sanguinalis; details: for Plant response rating, Crabgrass, Large: preemergence; for Crabgrass, Large plant response rating: postemergence, visual rating, scale 0 (no effect) to 100 (complete control)
Method in brief: as §2

redroot pigweed = assay: Test A pre-/postemergence herbicide test; type: in vivo, Amaranthus retroflexus
Method in brief: as §3

large crabgrass [9] = assay: Test A pre-/postemergence herbicide test; type: in vivo, Digitaria sanguinalis
Method in brief: as §3

velvetleaf [10] = assay: Test B pre-/postemergence herbicide test; type: in vivo, Abutilon theophrasti; details: for Plant response rating, Velvetleaf: preemergence; for Velvetleaf plant response rating: postemergence, visual rating, scale 0 (no effect) to 100 (complete control)
Method in brief: as §2

giant foxtail [11] = assay: Test A pre-/postemergence herbicide test; type: in vivo, Setaria faberi
Method in brief: as §3

wild oat = assay: Test B postemergence herbicide test; type: in vivo, Avena fatua; details: postemergence, visual rating, scale 0 (no effect) to 100 (complete control)
Method in brief: as §1

barnyardgrass [12] = assay: Test A pre-/postemergence herbicide test; type: in vivo, Echinochloa crus-galli
Method in brief: as §3

rice [13] = assay: Test B flooded paddy test; type: in vivo, Oryza sativa; details: 1000 g ai/ha, visual rating, scale 0 to 100 (0 no effect, 100 complete control), 13 to 15 days
Method in brief: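 Read-out: visual comparison with controls, scored 0 to 100, where 100 means complete control and 0 no effect. Formulated chemicals were applied postemergence to plants 2–18 cm tall (1- to 4-leaf), or to flooded-paddy plants at the 2-leaf stage, then held 13 to 15 days under glass.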

lambsquarters = assay: Test B pre-/postemergence herbicide test; type: in vivo, Chenopodium album; details: for Plant response rating, Lambsquarters: preemergence; for Lambsquarters plant response rating: postemergence, visual rating, scale 0 (no effect) to 100 (complete control)
Method in brief: as §2

ducksalad = assay: Test B flooded paddy test; type: in vivo, Heteranthera limosa; details: 1000 g ai/ha, visual rating, scale 0 to 100 (0 no effect, 100 complete control), 13 to 15 days
Method in brief: as §4

barnyardgrass [14] = assay: Test B pre-/postemergence herbicide test; type: in vivo, Echinochloa crus-galli; details: for Plant response rating, Barnyardgrass: preemergence; for Barnyardgrass plant response rating: postemergence, visual rating, scale 0 (no effect) to 100 (complete control)
Method in brief: as §5

[15] = 500 g ai/ha, visual rating 0-100, 0 no effect, 100 complete control
[16] = 125 g ai/ha, 0 to 100 scale, 0 is no effect, 100 is complete control
[17] = Postemergence, 250 g ai/ha, 0 to 100 scale, 0 no effect, 100 complete control
[18] = Postemergence, 1000 g ai/ha, 0 to 100 scale, 0 no effect, 100 complete control
[19] = Preemergence, 1000 g ai/ha, visual rating, 0 to 100 scale (0 no effect, 100 complete control)
[20] = preemergence, 250 g ai/ha, visual injury, 0 to 100 scale (0 no effect, 100 complete control)

CC(C)(C)c1cc(C(=O)Nc2cccc(SC(F)(F)F)c2)n(CCF)n1 [Compound 132]
5: Morningglory plant response rating (morningglory [5]; [20])
40: Blackgrass plant response rating (blackgrass; 500 g ai/ha) | Surinam Grass plant response rating (Surinam grass; 125 g ai/ha) | Plant response rating, Surinam Grass (Surinam grass; [16]) | Foxtail, Giant plant response rating (giant foxtail [6]; 500 g ai/ha) | Sedge, Umbrella plant response rating [7] | Crabgrass, Large plant response rating (large crabgrass [8]; 500 g ai/ha) | Pigweed plant response rating (redroot pigweed; [19]) | Foxtail, Giant plant response rating (giant foxtail [11]; [19])
75: Pigweed plant response rating (redroot pigweed; [17])
30: Plant response rating, Velvetleaf (velvetleaf [1]; [18]) | Barnyardgrass plant response rating (barnyardgrass [3]) | Foxtail, Giant plant response rating (giant foxtail [6]; 125 g ai/ha) | Plant response rating, Foxtail, Giant (giant foxtail [6]; [16]) | Crabgrass, Large plant response rating (large crabgrass [8]; 125 g ai/ha) | Pigweed plant response rating (redroot pigweed; [20]) | Plant response rating, Velvetleaf (velvetleaf [10]; [16]) | Plant response rating, Barnyardgrass (barnyardgrass [12]; [18])
35: Crabgrass, Large plant response rating (large crabgrass [9]; [19])
60: Surinam Grass plant response rating (Surinam grass; 500 g ai/ha) | Morningglory plant response rating (morningglory [2]; 125 g ai/ha) | Velvetleaf plant response rating (velvetleaf [10]; 125 g ai/ha) | Velvetleaf plant response rating (velvetleaf [10]; 500 g ai/ha) | Plant response rating, Lambsquarters (lambsquarters; [16]) | Barnyardgrass plant response rating (barnyardgrass [14]; 500 g ai/ha)
10: Wheat plant response rating (wheat; 125 g ai/ha) | Plant response rating, Corn (corn; [15]) | Plant response rating, Corn (corn; [16]) | Blackgrass plant response rating (blackgrass; 125 g ai/ha) | Plant response rating, Morningglory (morningglory [2]; [16]) | Morningglory plant response rating (morningglory [5]; [17]) | Morningglory plant response rating (morningglory [5]; [19]) | Barnyardgrass plant response rating (barnyardgrass [12]; [19]) | Ducksalad plant response rating (ducksalad) | Plant response rating, Barnyardgrass (barnyardgrass [14]; [16])
65: Plant response rating, Pigweed (redroot pigweed; [18])
0: Plant response rating, Rice (rice [4]) | Plant response rating, Cocklebur (cocklebur; [15]) | Plant response rating, Cocklebur (cocklebur; [16]) | Barnyardgrass plant response rating (barnyardgrass [12]; [20]) | Rice plant response rating (rice [13])
50: Plant response rating, Barnyardgrass (barnyardgrass [14]; [15]) | Barnyardgrass plant response rating (barnyardgrass [14]; 125 g ai/ha)
25: Plant response rating, Crabgrass, Large (large crabgrass [9]; [18]) | Foxtail, Giant plant response rating (giant foxtail [11]; [20])
100: Plant response rating, Pigweed (pigweed; [15]) | Plant response rating, Pigweed (pigweed; [16]) | Plant response rating, Crabgrass, Large (large crabgrass [8]; [15]) | Lambsquarters plant response rating (lambsquarters; 125 g ai/ha) | Lambsquarters plant response rating (lambsquarters; 500 g ai/ha)
70: Plant response rating, Surinam Grass (Surinam grass; [15]) | Morningglory plant response rating (morningglory [2]; 500 g ai/ha) | Pigweed plant response rating (pigweed; 125 g ai/ha) | Plant response rating, Velvetleaf (velvetleaf [10]; [15])
15: Velvetleaf plant response rating (velvetleaf [1]; [20]) | Foxtail, Giant plant response rating (giant foxtail [11]; [17])
20: Wheat plant response rating (wheat; 500 g ai/ha) | Corn plant response rating (corn; 125 g ai/ha) | Corn plant response rating (corn; 500 g ai/ha) | Velvetleaf plant response rating (velvetleaf [1]; [17]) | Velvetleaf plant response rating (velvetleaf [1]; [19]) | Plant response rating, Morningglory (morningglory [2]; [15]) | Plant response rating, Morningglory (morningglory [5]; [18]) | Crabgrass, Large plant response rating (large crabgrass [9]; [17]) | Crabgrass, Large plant response rating (large crabgrass [9]; [20]) | Plant response rating, Foxtail, Giant (giant foxtail [11]; [18]) | Oat, Wild plant response rating (wild oat; 125 g ai/ha) | Oat, Wild plant response rating (wild oat; 500 g ai/ha) | Barnyardgrass plant response rating (barnyardgrass [12]; [17])
90: Pigweed plant response rating (pigweed; 500 g ai/ha) | Cocklebur plant response rating (cocklebur; 125 g ai/ha) | Cocklebur plant response rating (cocklebur; 500 g ai/ha) | Plant response rating, Crabgrass, Large (large crabgrass [8]; [16]) | Plant response rating, Lambsquarters (lambsquarters; [15])
80: Plant response rating, Foxtail, Giant (giant foxtail [6]; [15])
